Data reported in ChEMBL document CHEMBL4304763 (Eur J Med Chem, 2019).
One block for each compound: values may come before it. Activity calls are given as the source filed them. No cut-off for these calls is given here.

Experiments:
COLO 205 [1] = test: cells; settings: Homo sapiens
A549 = test: cells; settings: Homo sapiens
MCF7 [2] = test: cells; settings: Homo sapiens
T47D = test: cells; settings: Homo sapiens
ZR-75-1 = test: cells; settings: Homo sapiens
in vitro [3] = settings: dog, microsomes
in vivo [4] = settings: BALB/c, mouse, iv, 3 mg/kg
PC-3 = test: cells; settings: Homo sapiens
in vitro [5] = settings: dog, microsomes; remark: listed apart in the source
in vivo [6] = settings: BALB/c, mouse, iv, 3 mg/kg; remark: listed apart in the source
in vivo [7] = settings: BALB/c, mouse, po, 10 mg/kg
in vitro [8] = settings: human, microsomes
in vitro [9] = settings: mouse, microsomes
in vivo [10] = settings: BALB/c, mouse, iv, 3 mg/kg; remark: listed apart in the source
U-87 MG = test: cells; settings: Homo sapiens
NCI-H1975 = test: cells; settings: Homo sapiens
CFPAC-1 = test: cells; settings: Homo sapiens
U-251 = test: cells; settings: Homo sapiens
COLO 205 [11] = settings: Homo sapiens
in vitro [12] = settings: rat, microsomes
in vivo [13] = settings: BALB/c, mouse, po, 10 mg/kg; remark: listed apart in the source
in vivo [14] = settings: BALB/c, mouse, iv, 3 mg/kg; remark: listed apart in the source
PANC-1 = test: cells; settings: Homo sapiens
in vitro [15] = settings: rhesus monkey, microsomes
HepG2 = test: cells; settings: Homo sapiens
NCI-H1993 = test: cells; settings: Homo sapiens
SNU-5 = test: cells; settings: Homo sapiens
NCI-N87 = test: cells; settings: Homo sapiens
in vitro [16] = settings: mouse, microsomes; remark: listed apart in the source
MCF7 [17] = assay type: functional, Homo sapiens; settings: at 50 mg/kg
in vitro [18] = settings: rat, microsomes; remark: listed apart in the source
in vitro [19] = settings: human, microsomes; remark: listed apart in the source
LNCaP = test: cells; settings: Homo sapiens
in vivo [20] = settings: BALB/c, mouse, po, 10 mg/kg; remark: listed apart in the source
in vivo [21] = settings: BALB/c, mouse, po, 10 mg/kg; remark: listed apart in the source
in vitro [22] = settings: rhesus monkey, microsomes; remark: listed apart in the source
BXPC-3 = test: cells; settings: Homo sapiens
in vivo [23] = settings: BALB/c, mouse, iv, 3 mg/kg; remark: listed apart in the source

SMILES: Cc1nc2c(F)cc(-c3nc(Nc4ccc5c(n4)CCN(CCN(C)P(C)(C)=O)C5)ncc3F)cc2n1C(C)C
IC50 (COLO 205 [1]): 387 nM | IC50 (A549): 934 nM | IC50 (MCF7 [2]): 551 nM | IC50 (T47D): 29 nM

SMILES: CCOP(=O)(OCC)N(C)CCN1CCc2nc(Nc3ncc(F)c(-c4cc(F)c5nc(C)n(C(C)C)c5c4)n3)ccc2C1
IC50 (COLO 205 [1]): 911 nM | IC50 (ZR-75-1): 453 nM | IC50 (A549): 1060 nM | IC50 (MCF7 [2]): 150 nM

IC50 (COLO 205 [1]): 125 nM | IC50 (ZR-75-1): 121 nM | IC50 (A549): 423 nM | IC50 (MCF7 [2]): 193 nM | IC50 (T47D): 62.5 nM
SMILES: C/C(=N\O)N(C)CCN1CCc2nc(Nc3ncc(F)c(-c4cc(F)c5nc(C)n(C(C)C)c5c4)n3)ccc2C1

half-life at 1 h (in vitro [3]): 17.8 min | Vd at 24 h (in vivo [4]): 8.24 L/kg | IC50 (PC-3): 9.21 µM | microsomal CLint at 1 h (in vitro [5]): 78 µL/min/mg | clearance at 24 h (in vivo [6]): 60 mL/min/kg | Cmax at 24 h (in vivo [7]): 577 ng/mL | half-life at 1 h (in vitro [8]): 8.15 min | half-life at 1 h (in vitro [9]): 8.25 min | Cmax at 24 h (in vivo [10]): 765 ng/mL | IC50 (U-87 MG): 706 nM | IC50 (NCI-H1975): 774 nM | IC50 (CFPAC-1): 371 nM | IC50 (U-251): 294 nM | microsomal CLint at 1 h (in vitro [12]): 6 µL/min/mg | half-life at 24 h (in vivo [13]): 283 min | half-life at 24 h (in vivo [14]): 325 min | IC50 (PANC-1): 701 nM | microsomal CLint at 1 h (in vitro [15]): 350 µL/min/mg | IC50 (HepG2): 216 nM | IC50 (NCI-H1993): 1160 nM | IC50 (SNU-5): 523 nM | IC50 (NCI-N87): 519 nM | microsomal CLint at 1 h (in vitro [16]): 168 µL/min/mg | half-life at 1 h (in vitro [18]): 231 min | microsomal CLint at 1 h (in vitro [19]): 170 µL/min/mg | IC50 (LNCaP): 84 nM | bioavailability at 24 h (in vivo [20]): 78.6% | AUC(0-t) at 24 h (in vivo [21]): 2170 ng·h/mL | half-life at 1 h (in vitro [22]): 3.96 min | IC50 (BXPC-3): 127 nM | AUC(0-t) at 24 h (in vivo [23]): 830 ng·h/mL
SMILES: CCN1CCN(Cc2ccc(Nc3ncc(F)c(-c4cc(F)c5nc(C)n(C(C)C)c5c4)n3)nc2)CC1 [ABEMACICLIB]
TGI (COLO 205 [11]): Active | T/C (MCF7 [17]): 37%
